One assay deals with T1, KRAS-G12D and SOS1 (Homo sapiens, UniProt P01116, G12D).
T1 construct: purchased
The experiment in a line: Inhibition of KRAS-G12D/SOS1 binding (Cisbio binding kit, 665/615 ratio), Effect Embodiment A. The note with it: read-out: GTP-KRAS-G12D:SOS1 IC50. Put shortly: (§1)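 Compounds are tested over eleven threefold dilution steps in duplicate, with final DMSO at 1%.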

A further assay concerns the target T2, KRAS_G12D and cRAF (Homo sapiens, UniProt P01116, G12D).
T2 construct: purchased
The experiment in a line: Inhibition of KRAS_G12D/cRAF binding (Cisbio binding kit, 665/615 ratio), Effect Embodiment B. The note with it: read-out: GTP-KRAS-G12D:CRAF IC50. The gist of the method: as §1

The target in the next assay is T3, KRAS_WT and SOS1 (Homo sapiens, UniProt P01116).
T3 construct: purchased
T3 sequence (P01116 1-188 isoform P01116-2): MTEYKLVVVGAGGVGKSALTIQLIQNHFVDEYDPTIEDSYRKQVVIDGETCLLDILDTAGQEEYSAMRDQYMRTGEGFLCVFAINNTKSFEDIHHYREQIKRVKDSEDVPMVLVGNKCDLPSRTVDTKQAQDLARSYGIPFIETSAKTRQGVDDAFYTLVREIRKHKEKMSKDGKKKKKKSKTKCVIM
The experiment in a line: Inhibition of KRAS_WT/SOS1 binding (Cisbio binding kit, 665/615 ratio), Effect Embodiment C. The note with it: read-out: GTP-KRAS-WT:SOS1 IC50. Put shortly:
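Compounds tested as 3-fold, 11-point dilutions in duplicate at 1% DMSO final against the KRAS_WT/SOS1 binding system. IC50 derived by nonlinear regression fit.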

Where “and” joins values, the source holds several entries; their conditions need not be identical. Equal values may be shown once. Where a name gives a salt, the structure may show the parent alone.

T2 sequence (P01116 1-188 isoform P01116-2 G12D): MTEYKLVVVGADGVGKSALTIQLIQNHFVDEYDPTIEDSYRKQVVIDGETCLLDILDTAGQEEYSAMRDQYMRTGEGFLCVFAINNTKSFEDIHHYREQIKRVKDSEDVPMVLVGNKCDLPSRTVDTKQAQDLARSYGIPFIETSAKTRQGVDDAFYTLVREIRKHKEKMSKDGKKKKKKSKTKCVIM
T1 sequence (P01116 1-188 isoform P01116-2 G12D): as above

One may read the IC50 as the point on the concentration scale where inhibition reaches its midpoint. On to `Oc1cc(-c2c(Cl)cc3c(N4CC5CCC(C4)N5)nc(OCC(CN4C5CCC4COC5)C4CC4)nc3c2F)c2ccccc2c1` (single isomer, unassigned) [Compound 209a, 4-((7S or 7R))-2-(2(R or S))-3-(3-oxa-8-azabicyclo[3.2.1]octan-8-yl)-2-cyclopropylpropoxy)-4-((1R,5S)-3,8-diazabicyclo[3.2.1]octan-3-yl)-6-chloro-8-fluoroquinazolin-7-yl)naphthalen-2-ol diformate], for which the half-maximal inhibitory concentration (IC50) was determined as 36.1 nM at KRAS-G12D and SOS1; 59.4 nM on KRAS_G12D and cRAF; 5650 nM on KRAS_WT and SOS1.

Turning to `C#Cc1c(F)ccc2cccc(-c3c(F)cc4c(N5CC6CCC(C5)N6)nc(OCCCN5C6CCC5COC6)nc4c3F)c12` (single isomer, unassigned) [Compound 272b, 8-(3-((R or S)-4-((1R,5S)-3,8-diazabicyclo[3.2.1]octan-3-yl)-7-(8-ethynyl-7-fluoronaphtthalen-1-yl)-6,8-difluoroquinazolin-2-yl)oxy)propyl)-3-oxa-8-azabicyclo[3.2.1]octane formate], the half-maximal inhibitory concentration (IC50) at KRAS-G12D and SOS1 stood at 18 nM; at KRAS_G12D and cRAF, 76.8 nM; at KRAS_WT and SOS1 it was 4260 nM.

For the molecule `Oc1cc(-c2c(Cl)cc3c(N4CC5CCC(C4)N5)nc(OC[C@@]45CCCN4C[C@H](F)C5)nc3c2F)c2c(F)c(F)ccc2c1` (single isomer, unassigned) [Compound 214a, 4-((S or R)-4-((1R,5S)-3,8-diazabicyclo[3.2.1]octane-3-yl)-6-chloro-8-fluoro-2-((2R,7aS)-2-fluorotetrahydro-1H-pyrrolidin-7a (5H)-yl)methoxy)quinazolin-7-yl)-5,6-difluoronaphthalen-2-ol diformate], the IC50 at KRAS-G12D and SOS1 came out at 13.2 nM; on KRAS_G12D and cRAF, 8.68 nM; at KRAS_WT and SOS1, 8.01 nM.

On to `CN(C)C1CN(c2nc(N3C[C@@H]4C[C@H]3CN4)c3cc(Cl)c(-c4cc(O)cc5ccccc45)c(F)c3n2)C1` (single isomer, unassigned) [Compound 2a, (R or S)-4-(4-((1S,4S)-2,5-diazabicyclo [2.2.1]heptan-2-yl)-6-chloro-2-(3-(dimethylamino)azetidin-1-yl)-8-fluoro-quinazolin-7-yl)naphthalen-2-ol], for which the IC50 was 248 nM at KRAS-G12D and SOS1; 589 nM at KRAS_G12D and cRAF; 9750 nM on KRAS_WT and SOS1.

Consider `CCc1cccc2cc(O)cc(-c3c(F)cc4c(N5CC6CCC(C5)N6)nc(OCCCN5C[C@@H](C)O[C@@H](C)C5)nc4c3F)c12` (single isomer, unassigned) [Compound 283a, (S or R)-4-(4-((1R,5S)-3,8-diazacyclo[3.2.1]octan-3-yl)-2-(3-((2S,6R)-2,6-dimethylmorpholinylpropoxy)-6,8-difluoroquinazolin-7-yl)-5-ethylnaphthalen-2-oldihydrochloride], for which the IC50 on KRAS-G12D and SOS1 stood at 15.8 nM; on KRAS_G12D and cRAF it was 19.2 nM; on KRAS_WT and SOS1, 761 nM.

For the molecule `CN(C)C1CCC(Oc2nc(N3CC4CCC(C3)N4)c3cc(Cl)c(-c4cc(O)cc5ccccc45)c(F)c3n2)C1` (single isomer, unassigned) [Compound 70d, 4-((S or R)-4-((1R,5S)-3,8-diazabicyclo[3.2.1]octan-3-yl)-6-chloro-2-((1R,3R or 1S,3S)-3-(dimethylamino)cyclopentyl)oxy)-8-fluoroquinazolin-7-yl)naphthalen-2-ol dihydrochloride], the IC50 on KRAS-G12D and SOS1 is 93.9 nM; at KRAS_G12D and cRAF, 356 nM; on KRAS_WT and SOS1 it was 60500 nM.

Regarding `CN(C)CCCOc1nc(N2C[C@H]3CC[C@@H](C2)N3)c2ccc(-c3cc(O)cc4ccccc34)c(F)c2n1` [Compound 143, 4-(4-((1R,5S)-3,8-diazabicyclo[3.2.1]octan-3-yl)-2-(3-(dimethylamino)propoxy)-8-fluoroquinazolin-7-yl)naphthalen-2-ol], the IC50 on KRAS-G12D and SOS1 was 16.7 nM and 21.2 nM; on KRAS_G12D and cRAF, 47.7 nM; on KRAS_WT and SOS1 it was 765 nM.

With `CN(CCCCN1CCNCC1)CCCOc1nc(N2C[C@H]3CC[C@@H](C2)N3)c2cc(Cl)c(-c3cc(O)cc4ccccc34)c(F)c2n1` (single isomer, unassigned) [Compound 103, (S or R)-4-(4-((1R,5S)-3,8-diazabicyclo[3.2.1]octan-3-yl)-6-chloro-8-fluoro-2-(3-(methyl(4-(piperazin-1-yl)butyl)amino)propoxy)quinazolin-7-yl)naphthalen-2-ol tetrahydrochloride], the IC50 was 19.4 nM at KRAS-G12D and SOS1; 120 nM on KRAS_G12D and cRAF; 1260 nM on KRAS_WT and SOS1.

Take `Oc1cc(-c2c(Cl)cc3c(N4CC5CCC(C4)N5)nc(OCCN4CCCC(F)C4)nc3c2F)c2ccccc2c1` (single isomer, unassigned) [Compound 267b, 4-((R or S)-4-((1R,5S)-3,8-diazacyclo[3.2.1]octan-3-yl)-6-chloro-8-fluoro-2-(2-((R or S)-3-fluoropiperidin-1-yl)ethoxy)quinazolin-7-yl)naphthalen-2-ol formate]: the concentration for half-maximal inhibition (IC50) worked out at 118 nM at KRAS-G12D and SOS1; 278 nM on KRAS_G12D and cRAF; 4600 nM on KRAS_WT and SOS1.

For the molecule `CN(C)C1CN(c2nc(N3CCCNCC3)c3cc(Cl)c(-c4cc(O)cc5ccccc45)c(F)c3n2)C1` (single isomer, unassigned) [Compound 23, (S or R)-4-(6-chloro-4-(1,4-diaza-1-yl)-2-(3-(dimethylamino)azetidin-1-yl)-8-fluoroquinazolin-7-yl)naphthalen-2-ol], the IC50 at KRAS-G12D and SOS1 came out at 947 nM; at KRAS_G12D and cRAF it was 22600 nM; on KRAS_WT and SOS1 it was 12400 nM.

Turning to `CCc1c(F)ccc2cc(O)cc(-c3c(Cl)cc4c(N5CC6CCC(C5)N6)nc(OC[C@H](C)CN5C6CCC5COC6)nc4c3F)c12` (single isomer, unassigned) [Compound 233b, 4-((7R or 7S)-2-((2R)-3-(3-oxa-8-azabicyclo[3.2.1]octan-8-yl)-2-methylpropoxy)-4-((1R,5S)-3,8-diazabicyclo[3.2.1]octan-3-yl)-6-chloro-8-fluoroquinazolin-7-yl)-5-ethyl-6-fluoronaphthalen-2-ol formate], the half-maximal inhibitory concentration (IC50) stood at 9.1 nM at KRAS-G12D and SOS1; 7.18 nM on KRAS_G12D and cRAF; 227 nM on KRAS_WT and SOS1.

Regarding `CN1CCN(c2nc(N3CC4CCC(C3)N4)c3cc(Cl)c(-c4cc(O)cc5ccccc45)c(F)c3n2)CC1` (single isomer, unassigned) [Compound 52a, 4-((S or R)-4-((1R,5S)-3,8-diazabicyclo[3.2.1]octan-3-yl)-6-chloro-8-fluoro-2-(4-methylpiperazin-1-yl)quinazolin-7-yl)naphthalen-2-ol], the IC50 was found to be 1140 nM on KRAS-G12D and SOS1; 9210 nM on KRAS_G12D and cRAF; 28900 nM on KRAS_WT and SOS1.

Take `Oc1cc(-c2c(Cl)cc3c(N4CC5CCC(C4)N5)nc(OCCN4C5CC6CC4CC(C5)O6)nc3c2F)c2ccccc2c1` (single isomer, unassigned) [Compound 238, (S or R)-4-(2-(2-((1R,3R,5R,7R)-2-oxa-6-azadamantan-6-yl)ethoxy)-4-((1R,5S)-3,8-diazabicyclo[3.2.1]octan-3-yl)-6-chloro-8-fluoroquinazolin-7-yl)naphthalen-2-ol formate]: the IC50 on KRAS-G12D and SOS1 stood at 43.3 nM; on KRAS_G12D and cRAF, 155 nM; at KRAS_WT and SOS1, 3080 nM.

For the origin of these results see patent US20230365563A1, “QUINAZOLINE COMPOUND AND APPLICATION THEREOF” (SHANGHAI PHARMACEUTICALS HOLDING CO., LTD., priority 2020, published 2023).
